Test results reported in the CheMixHub viscosity set.
Where “and” joins values, the source holds several entries; their conditions need not be identical. Equal values may be shown once.

Legend:
[1] = xn = mol fraction of the nth substance listed; conditions: 101 kPa

CC(C)CCO
Conditions | viscosity
293.15 K, 101.33 kPa | 4.579 mPa·s
298.1 K, 101 kPa | 3.841 mPa·s and 3.798 mPa·s
298.15 K, 100 kPa | 3.74 mPa·s
298.15 K, 101.3 kPa | 3.48 mPa·s
298.15 K, 101.33 kPa | 3.581 mPa·s
303.15 K, 101.3 kPa | 2.95 mPa·s and 2.958 mPa·s and 2.96 mPa·s
308.15 K, 100 kPa | 2.654 mPa·s
308.15 K, 101 kPa | 2.805 mPa·s and 2.61 mPa·s and 2.881 mPa·s
308.15 K, 101.3 kPa | 2.53 mPa·s
308.15 K, 101.33 kPa | 2.59 mPa·s
313.15 K, 101.3 kPa | 2.21 mPa·s
313.15 K, 101.33 kPa | 2.537 mPa·s and 2.391 mPa·s
318.15 K, 101 kPa | 2.05 mPa·s and 2.23 mPa·s
323.15 K, 101 kPa | 1.867 mPa·s and 1.974 mPa·s
323.15 K, 101.33 kPa | 1.827 mPa·s

CC(CC(C)(C)C)CP(=O)(O)CC(C)CC(C)(C)C (stereo unspecified)
Conditions | viscosity [mPa·s]
298.15 K, 101 kPa | 120

CCCCCCCCBr
101 kPa
Conditions | viscosity [mPa·s]
293.15 K | 1.544
303.55 K | 1.406
313.65 K | 1.204

CCCCCCCCCCOC(C)=O
Conditions | viscosity [mPa·s]
303.15 K, 101.3 kPa | 2.145

CCOCCO
viscosity
Conditions | 293.15 K | 298.15 K | 303 K | 303.15 K | 308.15 K | 313 K | 313.15 K | 318.15 K | 323.15 K
100 kPa | – | 1.92 mPa·s | – | 1.682 mPa·s | – | – | – | – | –
101 kPa | 2.054 mPa·s | 1.814 mPa·s | 1.67 mPa·s | – | 1.487 mPa·s and 1.453 mPa·s and 1.469 mPa·s | 1.341 mPa·s | 1.336 mPa·s and 1.341 mPa·s and 1.368 mPa·s | 1.279 mPa·s | 1.065 mPa·s
101.3 kPa | 2.04 mPa·s | 1.819 mPa·s | – | 1.631 mPa·s | 1.402 mPa·s and 1.47 mPa·s | – | 1.332 mPa·s | 1.212 mPa·s | 1.108 mPa·s
101.33 kPa | – | – | – | – | – | – | – | 1.18 mPa·s | –

CNC(C)=O
viscosity
Conditions | 293.15 K | 298.15 K | 303.15 K | 303.18 K | 308.15 K | 313 K | 313.15 K | 318.15 K
101 kPa | 5.56 mPa·s | 4.771 mPa·s | 4.087 mPa·s and 3.822 mPa·s (2×) | 3.65 mPa·s | 3.535 mPa·s | 3.012 mPa·s | 3.078 mPa·s and 2.904 mPa·s | 2.764 mPa·s and 2.607 mPa·s
101.33 kPa | – | – | – | – | 3.38 mPa·s | – | 3.012 mPa·s and 3.004 mPa·s | 2.673 mPa·s

CNCCO
viscosity
Conditions | 293.15 K | 298.15 K | 303.15 K | 308.15 K | 313.15 K | 318.15 K | 323.15 K
101 kPa | – | – | 8.596 mPa·s | 7.075 mPa·s | 5.892 mPa·s | 4.949 mPa·s | 4.204 mPa·s
101.3 kPa | 13.23 mPa·s | 10.63 mPa·s | 8.612 mPa·s and 8.535 mPa·s | 7.07 mPa·s and 7.014 mPa·s | 5.883 mPa·s and 5.841 mPa·s | 4.953 mPa·s and 4.919 mPa·s | 4.214 mPa·s and 4.186 mPa·s
101.33 kPa | – | 12 mPa·s | 9.528 mPa·s | – | 6.396 mPa·s | – | –

C[C@@H]1CCCC[C@H]1O
101 kPa
Conditions | viscosity [mPa·s]
298.15 K | 37.35
303.15 K | 25.29

Cc1cccc(Cl)c1
viscosity
Conditions | 303.15 K | 308.15 K | 313.15 K | 318.15 K
100 kPa | 0.743 mPa·s | 0.701 mPa·s | 0.663 mPa·s | 0.624 mPa·s
101 kPa | 0.751 mPa·s and 0.743 mPa·s | 0.701 mPa·s | 0.652 mPa·s and 0.663 mPa·s | 0.624 mPa·s

Cn1cc[n+](CCCC#N)c1.O=S(=O)([O-])C(F)(F)F
101 kPa
Conditions | viscosity [mPa·s]
293.15 K | 811.5
298.15 K | 580.6
303.15 K | 422.5
308.15 K | 310.1
313.15 K | 230.6
318.15 K | 177.1
323.15 K | 141.4

FC(F)(F)C(F)(F)C(F)(F)C(F)(F)C(F)(F)C(F)(F)F
101 kPa
Conditions | viscosity [mPa·s]
298 K | 0.635
303 K | 0.589
308 K | 0.548

N#C[C-](C#N)C#N.OCCC[n+]1ccccc1
101 kPa
Conditions | viscosity [mPa·s]
293.15 K | 126.3
298.15 K | 92.54
303.15 K | 69.51
308.15 K | 53.84
313.15 K | 42.53
318.15 K | 34.64
323.15 K | 28.1

Oc1ccc(Cl)cc1
Conditions | viscosity [mPa·s]
308.15 K, 101.33 kPa | 8.228

CCOCCO + OCCOCCO
[1]
Conditions | viscosity [mPa·s]
293.15 K, x1 = 0.0582 | 33.17
293.15 K, x1 = 0.0952 | 30.25
293.15 K, x1 = 0.2037 | 23.28
293.15 K, x1 = 0.3098 | 18.21
293.15 K, x1 = 0.4062 | 14.48
293.15 K, x1 = 0.4503 | 13.03
293.15 K, x1 = 0.5003 | 11.5
293.15 K, x1 = 0.5413 | 10.37
293.15 K, x1 = 0.5988 | 8.935
293.15 K, x1 = 0.6952 | 6.844
293.15 K, x1 = 0.8031 | 4.921
293.15 K, x1 = 0.9002 | 3.465
293.15 K, x1 = 0.9508 | 2.759
298.15 K, x1 = 0.0511 | 26.45
298.15 K, x1 = 0.1023 | 23.41
298.15 K, x1 = 0.2003 | 18.57
298.15 K, x1 = 0.2998 | 14.7
298.15 K, x1 = 0.3988 | 11.61
298.15 K, x1 = 0.4514 | 10.25
298.15 K, x1 = 0.4998 | 9.068
298.15 K, x1 = 0.5476 | 8.079
298.15 K, x1 = 0.5996 | 7.096
298.15 K, x1 = 0.6983 | 5.447
298.15 K, x1 = 0.7991 | 4.05
298.15 K, x1 = 0.882 | 3.061
298.15 K, x1 = 0.95 | 2.337
303.15 K, x1 = 0.0643 | 18.69
303.15 K, x1 = 0.0932 | 17.45
303.15 K, x1 = 0.2072 | 13.23
303.15 K, x1 = 0.3008 | 10.56
303.15 K, x1 = 0.4001 | 8.317
303.15 K, x1 = 0.4496 | 7.372
303.15 K, x1 = 0.4939 | 6.612
303.15 K, x1 = 0.5508 | 5.751
303.15 K, x1 = 0.5913 | 5.201
303.15 K, x1 = 0.701 | 3.93
303.15 K, x1 = 0.7959 | 3.051
303.15 K, x1 = 0.899 | 2.267
303.15 K, x1 = 0.9218 | 2.117
